Several values for one entry are separate records, joined by “and”; a condition that tells them apart may be missing. Equal entries are not always repeated. Marks after values point to notes of the source that are not given here.
Columns and labels:
[1] = test system: idiopathic asthenospermia; experiment: Spontaneous pregnancy after CoQ10 therapy; format: in vivo, human; details: within 3 months of the discontinuation of therapy
Procedure: (§1) Twenty-two patients (mean age, 31 years; range, 25-39 years) with idiopathic asthenospermia were enrolled in the study. The patients were selected at the Andrology Unit of the Division of Endocrinology, Umberto I Hospital, University of Ancona, Ancona, Italy. All subjects underwent medical screening, including history and clinical examination, and presented with a clinical history of primary infertility of at least 3 years. Testicular volume was evaluated in each patient using Prader's orchidometer. To accomplish a complete diagnosis, the following investigations were also performed: semen analysis; Mar-test (SperMar test, Diasint, Florence, Italy) for anti-spermatozoa antibodies (Ab); sperm culture and urethral specimens collection for Chlamydia and Mycoplasma ureoliticum detection; FSH, LH, T, E2, and PRL assays, using commercial RIA kits; and testicular, prostatic, and seminal vesicle ultrasound and echo-color Doppler of venous spermatic plexus for anatomical abnormalities and varicocele detection.
There was no apparent female factor, since all partners (mean age, 28 years; range, 23-35 years) were ovulating regularly as formally proven by luteal phase progesterone (P) levels and no abnormal fallopian tube anatomy was detected after hysterosalpingography. […]

sperm cells [2] = experiment: Seminal fluid analysis (WHO criteria): sperm concentration, motility, morphology; format: in vivo, human; details: for Sperm concentration / Teratozoospermia: NS
Procedure: (§2) The enrolled patients underwent dietary implementation of CoQ10 (PharmaNord, Veyle, Denmark), 200 mg/day twice daily orally for 6 months. Clinical examination, semen analysis including computer-assisted sperm analysis (CASA), and CoQ10 and PC assays were performed at baseline and after 6 months of therapy. An additional semen analysis was performed 6 months after the termination of therapy (wash-out). This study was approved by the Institutional Review Board of the University of Ancona-Umberto I Hospital. All patients provided their written informed consent and completed the entire trial.
Semen quality was assessed by the same biologist in terms of sperm concentration, motility, and morphology in accordance with WHO criteria. Briefly, seminal fluid was obtained by masturbation after 3-5 days of sexual abstinence. The samples were kept in the andrology lab at room temperature and processed within 1 hour from ejaculation. Sperm count was determined with the Makler chamber. Motile spermatozoa were assessed by phase contrast microscopy (10 μL of semen was delivered onto a glass slide and covered with a 22 mm×22 mm coverslip) and graded as follows: class a and b, fast and weak forward motility; class c, nonprogressive motility; class d, immobile spermatozoa. Sperm morphology was evaluated on smears of seminal fluid, stained with the Giemsa method, and observed by oil immersion light microscopy. Conventional immunocytochemistry was used to assess WBC.

[3] = after chronic administration of the quinone; commonly found; cited from earlier work
Safety assessment = format: in vivo, human; details: oral administration, 6 months
Source text: Safety assessment included medical history, physical examination, hematological screening, and serum chemistry at all visits and the monitoring of drug-related adverse events by recordation in patient diaries.

[4] = Phosphatidylcholine (PC) levels in seminal plasma and sperm cells by HPLC-UV after CoQ10 treatment; format: in vivo, human; details: after 6 months CoQ10 orally, mean ± SD, P<0.05
Procedure: as §2
Analysis of PC was performed according to Frei et al. with the modification described by Yamamoto et al. After adding 1 mL of methanol to a cellular suspension containing about 10^6 sperm cells or to 50 μL of seminal plasma, samples were mixed for 1 minute; then 6 mL of hexane were added and samples were mixed again before centrifugation (10 minutes at 500 g). Supernatant was collected and dried with a nitrogen stream. Dried sample residues were dissolved in 300 μL of ethanol.
Phosphatidylcholine was essentially determined according to Frei et al. An analytical column was a Supelcosil LCSi, 25 cm×0.46 cm ID, 5 μm (Supelco). A Jasco HPLC System (Jasco Corporation, Tokyo, Japan) provided with two PU-980 pumps, and a UV detector set at 205 nm wavelength was used for detention of total PC.

[5] = CoQ10 levels in seminal plasma and sperm cells by HPLC-EC, idiopathic asthenospermia patients on CoQ10; format: in vivo, human
Procedure: as §1, §2
The liquefied semen samples were centrifuged at room temperature at 500×g for 18 minutes. The sperm cell pellet was washed with 0.15 M NaCl. Two hundred fifty microliters of 1-propanol were added to 50 μL of a cellular suspension containing 10^6 sperm cells or to 50 μL of seminal plasma. After mixing for 1 minute, the samples were centrifuged for 5 minutes at 2,000×g and the obtained supernatants were injected into the high pressure liquid chromatography (HPLC) apparatus. […]
CoQ10 levels were assayed in sperm cells and seminal plasma using a Beckman Gold HPLC System (Beckman Instruments, San Ramon, Calif.) equipped with an electrochemical detector (EC, ESA 5100, Bedford, Mass.) as described elsewhere. The detector was supplied with a guard cell and an analytical cell with two electrodes in series; the potentials applied to the electrodes were, respectively, +0.6V, −0.45V, and +0.6V; chromatograms were recorded from the second analytical cell signal. One hundred microliters of samples were directly injected into the analytical column and analyzed; an analytical column was a Supelcosil reverse-phase C18, 15 cm×0.46 cm ID, 3 μm (Supelco, Inc., Bellefonte, Pa.). […]

sperm cells [6] = experiment: Computer-assisted sperm analysis (CASA) of sperm cell motility; format: in vivo, human; details: after 6 months treatment, P<0.05; for Straight progressive velocity (VSL): baseline 15.20 ± 1.30; for Curvilinear velocity (VCL): baseline 26.31 ± 1.50
Procedure: as §2
In addition, CASA for sperm cell motility was performed, as reported elsewhere. One semen aliquot (3 μL) was placed in a 20-μm depth chamber. Two 20-μm depth cell-VU chambers (Conception Technologies, La Jolla, Calif.) were loaded, and six different fields per chamber were randomly examined and at least 200 sperm for each field of the chamber were scored. Percentages of motile sperm and movement characteristics were analyzed using an automated analyzer at 37° C. (CellTrack VP 110, Motion Analysis Corporation, Palo Alto, Calif.). Sperm velocity and kinetic characteristics were evaluated only for motile sperm and expressed as mean values considering curvilinear velocity (VCL) and straight progressive velocity (VSL).

[7] = after 6 months wash-out, listed as coenzyme Q10

COC1=C(OC)C(=O)C(C/C=C(\C)CC/C=C(\C)CC/C=C(\C)CC/C=C(\C)CC/C=C(\C)CC/C=C(\C)CC/C=C(\C)CC/C=C(\C)CC/C=C(\C)CCC=C(C)C)=C(C)C1=O [CoQ10, ubiquinone]
patients who achieved spontaneous pregnancy ([1]; three out of 22 patients): 13.6% | pregnancy rate per cycle [1]: 2.4% | Forward Motility (class a+b) (sperm cells [2]; after 6 months treatment, baseline 9.13 ± 2.50, P<0.05): 16.34%±3.43 | Forward Motility (class a+b) (sperm cells [2]; after 6 months treatment, baseline 9.13 ± 2.50, P<0.05, listed as coenzyme Q10): 16.34 ± 3.43^a % | Sperm concentration (sperm cells [2]; after 6 months treatment, baseline 27.60 ± 7.41): No significant differences | Sperm concentration (sperm cells [2]; after 6 months treatment, baseline 27.60 ± 7.41, listed as coenzyme Q10): 25.92 ± 5.63, NS 106/mL | Teratozoospermia (sperm cells [2]; after 6 months treatment, baseline 69.76 ± 4.63): No significant differences | Teratozoospermia (sperm cells [2]; after 6 months treatment, baseline 69.76 ± 4.63, listed as coenzyme Q10): 67.82 ± 7.44, NS % | Forward Motility (class a+b) (sperm cells [2]; after 6 months wash-out): 9.50% ±2.28 | Sperm concentration (sperm cells [2]; after 6 months wash-out): no significant differences | Teratozoospermia (sperm cells [2]; after 6 months wash-out): no significant differences | Sperm concentration (sperm cells [2]; [7]): 26.18 ± 4.04, NS 106/mL | Teratozoospermia (sperm cells [2]; [7]): 66.23 ± 5.34, NS % | Forward Motility (class a+b) (sperm cells [2]; [7]): 9.50 ± 2.28^b % | increase of CoQ10 concentration in blood plasma compared with baseline value [3]: 2-3 times | laboratory abnormalities (Safety assessment): no laboratory abnormalities were observed | tolerability (Safety assessment): generally well tolerated | PC, seminal plasma ([4]; baseline 1.49 ± 0.50): 5.84±1.15 μM and 5.84 ± 1.15^b μM | PC, sperm cells ([4]; baseline 6.83 ± 0.98): 9.67±1.23 nmol/10^6 cells and 9.67 ± 1.23^b nmol/10^6 cells | CoQ10, seminal plasma ([5]; after 6 months CoQ10 200 mg/day twice daily orally, baseline 42.0 ± 5.1, mean ± SD, P<0.005): 127.1 ± 1.9^a ng/mL | CoQ10, sperm cells ([5]; after 6 months CoQ10 orally, baseline 3.1 ± 0.4, mean ± SD, P<0.05): 6.5±0.3 ng/10^6 cells and 6.5 ± 0.3^b ng/10^6 cells | seminal plasma CoQ10 post-treatment level relative to basal ([5]; after 6 months treatment): 3 times | concentration at 6 months ([5]; male, human, seminal plasma, po, after 6 months CoQ10 200 mg/day twice daily orally, baseline 42.0 ± 5.1, mean ± SD, P<0.005): 127 ± 1.9 ng/mL | Straight progressive velocity (VSL) (sperm cells [6]): 20.40±2.17 um/second | Straight progressive velocity (VSL) (sperm cells [6]; listed as coenzyme Q10): 20.40 ± 2.17^a um/second | Curvilinear velocity (VCL) (sperm cells [6]): 46.43±2.28 um/second | Curvilinear velocity (VCL) (sperm cells [6]; listed as coenzyme Q10): 46.43 ± 2.28^a um/second

From patent US20060154993A1, “Method for treating and preventing male infertility” (priority 2004, published 2006)
